According to the NIST ThermoML archive (doi:10.1016/j.fluid.2018.05.031):
± gives the expanded uncertainty stated by the source.

Settings: Liquid; Ebulliometric method (Recirculating still)

Normal boiling temperature	Compound
56.90 ± 0.2 °C	COC(C)=O [methyl ethanoate]
64.50 ± 0.2 °C	CO [methanol]
